Experimental findings from patent publication US20090062294A1, “HETEROARYL-SUBSTITUTED UREA MODULATORS OF FATTY ACID AMIDE HYDROLASE” (priority 2007, published 2009) are described below.

Molecules are shown by their SMILES.

The target in experiment [1] is T1, rat FAAH (Rattus norvegicus, UniProt P97612).
T1 sequence (P97612 1-579): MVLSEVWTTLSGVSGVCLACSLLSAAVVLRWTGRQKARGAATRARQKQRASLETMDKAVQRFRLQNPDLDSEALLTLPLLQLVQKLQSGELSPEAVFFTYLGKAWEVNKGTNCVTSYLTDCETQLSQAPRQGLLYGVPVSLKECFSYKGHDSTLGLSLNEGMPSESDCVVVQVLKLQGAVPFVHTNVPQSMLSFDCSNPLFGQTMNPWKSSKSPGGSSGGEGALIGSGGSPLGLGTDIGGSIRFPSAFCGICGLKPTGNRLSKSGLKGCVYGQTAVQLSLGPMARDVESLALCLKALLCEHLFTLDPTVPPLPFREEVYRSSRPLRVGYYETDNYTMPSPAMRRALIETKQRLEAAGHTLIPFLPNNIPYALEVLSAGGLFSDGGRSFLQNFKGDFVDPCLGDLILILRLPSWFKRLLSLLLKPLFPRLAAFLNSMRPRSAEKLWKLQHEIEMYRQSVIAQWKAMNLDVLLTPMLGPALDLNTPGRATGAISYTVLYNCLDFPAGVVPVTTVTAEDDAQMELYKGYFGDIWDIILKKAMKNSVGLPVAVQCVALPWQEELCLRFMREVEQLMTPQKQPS
Nature of the experiment: Assay Method 2: FAAH assay, 3H-anandamide hydrolysis in homogenate of SK-N-MC cells transfected with rat FAAH. In kind it is biochemical. Particulars: average of results, > = solubility limit or highest concentration tested. The method, boiled down:
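Homogenate of SK-N-MC cells stably transfected with rat FAAH cDNA (G418-selected clones) in pH 9 Tris/EDTA/glycerol/Triton buffer. Incubated with compound and 80 nM final [3H]-anandamide for 1 h at rt. Released [3H]-ethanolamine separated from substrate on activated charcoal filters and counted by scintillation.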

The target in experiment [2] is T2, FAAH (Homo sapiens, UniProt O00519).
T2 sequence (O00519 1-579): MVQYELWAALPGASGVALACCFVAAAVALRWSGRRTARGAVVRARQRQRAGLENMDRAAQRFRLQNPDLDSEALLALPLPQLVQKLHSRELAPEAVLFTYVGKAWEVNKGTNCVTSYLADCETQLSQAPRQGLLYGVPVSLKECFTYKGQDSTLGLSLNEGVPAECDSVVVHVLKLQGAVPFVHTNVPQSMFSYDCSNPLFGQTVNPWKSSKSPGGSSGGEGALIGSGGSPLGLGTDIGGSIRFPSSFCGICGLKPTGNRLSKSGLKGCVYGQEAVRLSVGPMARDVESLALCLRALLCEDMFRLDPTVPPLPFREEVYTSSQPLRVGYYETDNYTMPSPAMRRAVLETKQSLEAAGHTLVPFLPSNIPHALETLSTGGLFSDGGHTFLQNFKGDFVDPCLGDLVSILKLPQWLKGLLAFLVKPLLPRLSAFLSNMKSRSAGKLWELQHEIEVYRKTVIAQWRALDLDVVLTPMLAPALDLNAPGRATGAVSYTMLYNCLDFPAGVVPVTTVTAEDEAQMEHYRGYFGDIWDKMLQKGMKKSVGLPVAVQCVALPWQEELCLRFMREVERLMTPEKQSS
In words: Assay Method 1: FAAH assay, 3H-anandamide hydrolysis in homogenate of T84 cells or SK-N-MC cells transfected with human FAAH. In kind it is biochemical. Particulars: average of results, > = solubility limit or highest concentration tested. The method, boiled down: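 Homogenates of T84 cells or of SK-N-MC cells stably transfected with human FAAH (G418-selected) were prepared in pH 9 Tris/EDTA/glycerol/Triton buffer. They were incubated with compound and 80 nM final ^3H-anandamide for 1 h at rt. Released ^3H-ethanolamine was separated on activated charcoal and counted by scintillation.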

One may read the IC50 as the concentration that inhibits the measured activity by half. A higher IC50 goes with weaker potency in that assay.

As for `O=C(Nc1ccon1)N1CCN(Cc2cccc(Oc3cccc(Cl)c3)c2)CC1` [Example 136, 4-[3-(3-Chlorophenoxy)benzyl]-N-isoxazol-3-ylpiperazine-1-carboxamide], the half-inhibitory concentration (IC50) in experiment [1] was 1000 nM; in experiment [2] it was 55 nM.
The like results for `O=C(Nc1ccon1)N1CCN(Cc2cccc(Oc3ccc(OCC(F)(F)F)cc3)c2)CC1` [Example 137, N-Isoxazol-3-yl-4-{3-[4-(2,2,2-trifluoroethoxy)phenoxy]benzyl}piperazine-1-carboxamide] were, in that order, 360 nM and 60 nM.
As for `O=C(Nc1ccon1)N1CCN(Cc2cc3ccccc3o2)CC1` [Example 138, 4-(1-Benzofuran-2-ylmethyl)-N-isoxazol-3-ylpiperazine-1-carboxamide], the IC50 in experiment [1] is greater than 10000 nM; in experiment [2] it was 5000 nM.
Take `N#Cc1cccc(Oc2cccc(CN3CCN(C(=O)Nc4ccon4)CC3)c2)c1` [Example 139, 4-[3-(3-Cyanophenoxy)benzyl]-N-isoxazol-3-ylpiperazine-1-carboxamide]: the IC50 in experiment [1] was greater than 10000 nM; in experiment [2], 860 nM.
Take `O=C(Nc1ccon1)N1CCN(Cc2cccc(Oc3ccccc3Cl)c2)CC1` [Example 140, 4-[3-(2-Chlorophenoxy)benzyl]-N-isoxazol-3-ylpiperazine-1-carboxamide]: the figures for the IC50 in experiment [1] and in experiment [2] were 6000 nM and 700 nM, respectively.
The like results for `O=C(Nc1ccon1)N1CCN(Cc2cccc(Oc3ccc4c(c3)OC(F)(F)O4)c2)CC1` [Example 141, 4-{3-[(2,2-Difluoro-1,3-benzodioxol-5-yl)oxy]benzyl}-N-isoxazol-3-ylpiperazine-1-carboxamide] were, in that order, 870 nM and 50 nM.
For the compound `O=C(Nc1ccon1)N1CCN(Cc2ccc3c(c2)OCO3)CC1` [Example 143, 4-(1,3-Benzodioxol-5-ylmethyl)-N-isoxazol-3-ylpiperazine-1-carboxamide], the IC50 in experiment [1] and in experiment [2] was greater than 10000 nM each time.
As to `O=C(Nc1ccon1)N1CCN(Cc2ccc3ccccc3c2)CC1` [Example 144, N-Isoxazol-3-yl-4-(naphthalen-2-ylmethyl)piperazine-1-carboxamide], the IC50 in experiment [1] was determined as 3000 nM; in experiment [2], 350 nM.
Take `O=C(Nc1ccon1)N1CCN(Cc2cccc(Oc3ccc(Br)cc3)c2)CC1` [Example 145, 4-[3-(4-Bromophenoxy)benzyl]-N-isoxazol-3-ylpiperazine-1-carboxamide]: the values for the half-maximal inhibitory concentration (IC50) in experiment [1] and in experiment [2] were 430 nM and 16 nM, respectively.
For `O=C(Nc1ccon1)N1CCN(Cc2ccc(Br)cc2)CC1` [Example 148, 4-(4-Bromo-benzyl)-piperazine-1-carboxylic acid isoxazol-3-ylamide] the same measures were greater than 10000 nM and 5000 nM.
On to `O=C(Nc1ccon1)N1CCN(Cc2cccc(Oc3ccc4ccccc4c3)c2)CC1` [Example 150, 4-[3-(Naphthalen-2-yloxy)-benzyl]-piperazine-1-carboxylic acid isoxazol-3-ylamide], for which the IC50 worked out at 1200 nM in experiment [1] and 400 nM in experiment [2].
The like results for `O=C(Nc1ccon1)N1CCN(Cc2ccc(Br)c(F)c2)CC1` [Example 151, 4-(4-Bromo-3-fluoro-benzyl)-piperazine-1-carboxylic acid isoxazol-3-ylamide] were, in that order, 6000 nM and 3000 nM.
The like results for `N#Cc1ccc(Oc2cccc(CN3CCN(C(=O)Nc4ccon4)CC3)c2)cc1` [Example 152, 4-[3-(4-Cyano-phenoxy)-benzyl]-piperazine-1-carboxylic acid isoxazol-3-ylamide] were, in that order, 5000 nM and 330 nM.
Turning to `O=C(Nc1ccon1)N1CCN(Cc2cccc(Oc3ccc(F)c(F)c3)c2)CC1` [Example 153, 4-[3-(3,4-Difluorophenoxy)benzyl]-N-isoxazol-3-ylpiperazine-1-carboxamide], the IC50 in experiment [1] is 8000 nM; in experiment [2], 460 nM.
For `O=C(Nc1ccon1)N1CCN(Cc2cccc(Oc3ccc(SC(F)(F)F)cc3)c2)CC1` [Example 155, N-Isoxazol-3-yl-4-(3-{4-[(trifluoromethyl)sulfanyl]phenoxy}benzyl)-piperazine-1-carboxamide] the same measures were 270 nM and 20 nM.
On to `O=C(Nc1ccon1)N1CCN(Cc2cccc(Oc3ccc(F)c(C(F)(F)F)c3)c2)CC1` [Example 156, 4-{3-[4-Fluoro-3-(trifluoromethyl)phenoxy]benzyl}-N-isoxazol-3-ylpiperazine-1-carboxamide], for which the IC50 is 5000 nM in experiment [1] and 43 nM in experiment [2].
For the compound `O=C(Nc1ccon1)N1CCN(Cc2cccc(Oc3cccc(Br)c3)c2)CC1` [Example 157, 4-[3-(3-Bromophenoxy)benzyl]-N-isoxazol-3-ylpiperazine-1-carboxamide], the IC50 in experiment [1] was determined as 360 nM; in experiment [2], 80 nM.
With `O=C(Nc1ccon1)N1CCN(Cc2cccc(Oc3ccc(S(=O)(=O)C(F)(F)F)cc3)c2)CC1` [Example 158, N-Isoxazol-3-yl-4-(3-{4-[(trifluoromethyl)sulfonyl]phenoxy}benzyl)-piperazine-1-carboxamide], the figures for the IC50 in experiment [1] and in experiment [2] were 150 nM and 10 nM, respectively.
With `O=C(Nc1ccon1)N1CCN(Cc2cccc(Oc3cccc(OC(F)(F)F)c3)c2)CC1` [Example 159, N-Isoxazol-3-yl-4-{3-[3-(trifluoromethoxy)phenoxy]benzyl}piperazine-1-carboxamide], the IC50 in experiment [1] was 300 nM; in experiment [2] it was 50 nM.
The like results for `O=C(Nc1ccon1)N1CCN(Cc2ccc(Cl)c(Cl)c2)CC1` [Example 160, 4-(3,4-Dichlorobenzyl)-N-isoxazol-3-ylpiperazine-1-carboxamide] were, in that order, 8000 nM and 3000 nM.
For `O=C(Nc1ccon1)N1CCN(Cc2cccc(Oc3ccc(C(F)(F)F)cc3)c2)CC1` [Example 161, N-isoxazol-3-yl-4-{3-[4-(trifluoromethyl)phenoxy]benzyl}piperazine-1-carboxamide] the same measures were 160 nM and 4 nM.
Consider `O=C(Nc1ccon1)N1CCN(Cc2cccc(Oc3ccc4ncccc4c3)c2)CC1` [Example 162, N-Isoxazol-3-yl-4-[3-(quinolin-6-yloxy)benzyl]piperazine-1-carboxamide], for which the figures for the IC50 in experiment [1] and in experiment [2] were 6400 nM and 240 nM, respectively.
With `N#Cc1ccc(Oc2cccc(CN3CCN(C(=O)Nc4ccon4)CC3)c2)cc1C(F)(F)F` [Example 163, 4-{3-[4-Cyano-3-(trifluoromethyl)phenoxy]benzyl}-N-isoxazol-3-ylpiperazine-1-carboxamide], the figures for the IC50 in experiment [1] and in experiment [2] were greater than 10000 nM and 1000 nM, respectively.
Take `Cc1cc(NC(=O)N2CCN(Cc3cccc(Oc4ccc(Cl)cc4)c3)CC2)no1` [Example 164, 4-[3-(4-Chlorophenoxy)benzyl]-N-(5-methylisoxazol-3-yl)piperazine-1-carboxamide]: the IC50 in experiment [1] was determined as 7000 nM; in experiment [2], 141 nM.
The like results for `O=C(Nc1nnn[nH]1)N1CCN(Cc2cnc3ccccc3c2)CC1` [Example 165, 4-(Quinolin-3-ylmethyl)-N-1H-tetrazol-5-ylpiperazine-1-carboxamide] were, in that order, 6000 nM and 8000 nM.
In the case of `O=C(Nc1nn[nH]n1)N1CCN(Cc2cccc(Oc3ccc4ccccc4c3)c2)CC1` [Example 166, 4-[3-(Naphthalen-2-yloxy)benzyl]-N-1H-tetrazol-5-ylpiperazine-1-carboxamide], the IC50 in experiment [1] was found to be 7 nM; in experiment [2] it was 13 nM.
As to `O=C(Nc1nn[nH]n1)N1CCN(Cc2ccc(Br)c(Br)c2)CC1` [Example 167, 4-(3,4-Dibromobenzyl)-N-1H-tetrazol-5-ylpiperazine-1-carboxamide], the figures for the IC50 in experiment [1] and in experiment [2] were 80 nM and 340 nM, respectively.
As for `O=C(Nc1nn[nH]n1)N1CCN(Cc2ccc(Br)c(F)c2)CC1` [Example 168, 4-(4-Bromo-3-fluorobenzyl)-N-1H-tetrazol-5-ylpiperazine-1-carboxamide], the IC50 in experiment [1] is 480 nM; in experiment [2], 1200 nM.
